In assay [1] the test system is MCF-7. Description: Senescence associated β-Galactosidase (SA-β-Gal) staining. It counts as cell-based, human. The note with it: for SALL1-induced senescent cell populations with MAPK inhibitor: 10 μM for 5 days, SALL1-transfected cells. As for the experimental part: (§1) Senescence associated β-Galactosidase (SA-β-Gal) activity in tumor cells was detected as previously described (30, 33). Briefly, tumor cell lines were transfected with or without plasmids and cultured for 3 or 5 days. Cells were washed in PBS (pH 7.2), fixed in 3% formaldehyde, and followed to incubate overnight at 37° C. with freshly prepared SA-β-Gal staining solution (1 mg/ml X-gal, 5 mM K3Fe[CN]6, 5 mM K4Fe[CN]6, 2 mM MgCl2 in PBS at pH 6.0). The stained cells were washed with H2O and examined with a microscope. For some experiments, SA-β-Gal^+ populations were determined in the transfected tumor cells in the presence of following various inhibitors or combined transfection with shRNAs: ATM inhibitor KU55933 (20 μM, Tocris Bioscience); mTOR inhibitor Rapmycin (5 μM, Sigma); MAPK inhibitors U0126 (10 μM), SB203580 (10 μM) and SP600125 (10 μM), or PI3 Kinase inhibitor Wortminnin (10 μM) (Calbiochemistry), or transfection with shRNAs against p38, ERK and mTOR, for 3 or 5 days. The treated tumor cells were then detected for SA-β-Gal expression.
(§2) The methods for design and construction of shRNA specific for ERK1, ERK2, P38a, JNK1 and mTOR or scrambled lenti-shRNAs, and generation of recombinant lentivirus carrying GFP and shRNA, have been described previously (Peng et al., 2005 and Peng et al., 2007). For virus transfection, concentrated lentiviral supernatant with a multiplicity of infection (MOI) of 5-10 in a total volume of 0.5 ml culture medium was added to the tumor cells growing in 24 well plates containing 8 μg/ml polybrene (Sigma), and then centrifuged at 1000×g for 1 hr at room temperature. Tumor cells were sorted into GFP^+ and GFP^− cells with a FACS ARIA sorter at 3 or 4 days post-transfection. The sorted cells (GFP^+ and GFP^−) were then transfected with or without pcDNA3.1-SALL-1, and induction of senescence was determined.

Assay [2] has as its system E0771. The description is as above. The note with it: for SALL1-induced senescent cell populations with MAPK inhibitor: 10 μM for 5 days, SALL1-transfected cells. In kind it is cell-based, murine. As for the experimental part:
as §1, §2

The test system of assay [3] is ATM-associated DNA damage response in MCF-7. In words: DNA damage response markers by FACS. The note with it: KU55933 20 μM. It counts as cell-based, human. As for the experimental part:
(§3) The expression of DNA damage response markers on tumor cells were determined by FACS analysis after staining with anti-human specific antibodies conjugated with either PE or FITC. These human antibodies included: anti-phosphorylated H2Ax, anti-phosphorylated p53 bp, and anti-phosphorylated ATM, which were purchased from Cell Signaling Technology or BD Biosciences. All stained cells were analyzed on a FACSCalibur flow cytometer (BD Bioscience) and data analyzed with FlowJo software (Tree Star).

Assay [4] deals with ATM-associated DNA damage response in E0771. Description: DNA damage response markers by FACS. In kind it is cell-based, murine. The note with it: KU55933 20 μM. How it is done: as §3
Setting [5] is: pretreated 20 μM for 1 day, then SALL1 transfection, 3 days.

Structures are written as SMILES.

Consider `O=c1cc(-c2cccc3c2Sc2ccccc2S3)oc(N2CCOCC2)c1` [KU55933], for which the “SALL1-induced senescence induction with ATM inhibitor” value in assay [1] (setting [5]) and in assay [2] (setting [5]) was “prevented the senescence induction” throughout. The “phosphorylation of ATM in SALL1-transfected tumor cells with inhibitor” value in assay [3] and in assay [4] was “dramatically suppressed” each time.

For the compound `C[S+]([O-])c1ccc(-c2nc(-c3ccncc3)c(-c3ccc(F)cc3)[nH]2)cc1` (centres unmarked) [SB203580], the “SALL1-induced senescent cell populations with MAPK inhibitor” value in assay [1] and in assay [2] was “significantly reduced” in each case.

Turning to `N#CC(=C(/N)Sc1ccccc1N)/C(C#N)=C(\N)Sc1ccccc1N` [U0126], the “SALL1-induced senescent cell populations with MAPK inhibitor” value in assay [1] and in assay [2] was “significantly reduced” in each case.

(Values after patent publication US10618944B2, “Tumor suppressor SALL1 as a therapeutic agent for treating cancer” (Saint Louis University, priority 2015, dated 2020).)
